The structures appear in SMILES notation. pIC50: −log10 of the molar value. Calls of active or inactive are those of the source.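 The calls were made as follows: active = inhibition of 30% or more at any tested concentration; inactive = the rest.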

In one test the target is M1-family alanyl aminopeptidase (PfM1AAP), Plasmodium falciparum 3D7. The experiment in a line: malaria M1 alanyl aminopeptidase inhibitors – biochemical, QFRET, H-Leu-NHMec substrate, selectivity assay for PfM18AAP inhibitor project, dose response (AID 588680). Particulars: recombinant PfM1AAP, H-Leu-NHMec fluorogenic cleavage.
In the case of `Cc1nc(NCCc2ccc(O)c(O)c2)c2c3c(sc2n1)CCC3`, the negative logarithm of the IC50 (pIC50) is 4.40.
Regarding `O=c1cc(CN2CCN(Cc3ccccc3)CC2)c2ccc(O)c(O)c2o1`, the pIC50 is 4.04.
With `CCC(C)c1ccc(N)c(O)c1` (stereo not drawn), the negative-log IC50 (pIC50) is 4.37.
For `O=C1c2ccc3c4c(ccc(c24)C(=O)N1O)CC3`, the pIC50 is 4.12.
For `Oc1ccc(CCN2CCc3ccccc3C2)cc1O`, the pIC50 is 4.11.
The same measure, in the same setting: the figure for `O=c1ccc2cc(O)c(O)cc2o1` is 4.32; for `O=C1OCCN1CCc1nc(-c2ccc(O)c(O)c2)cs1` it is 4.42.
For `CN(CCc1ccc(O)c(O)c1)c1ccnc2ccccc12`, the pIC50 is 4.71.
Still for that read-out and setting: the value for `CCOc1cccc(-c2nc(-c3ccc(O)c(O)c3)cs2)c1` was 4.40.
Same read-out and setting: the value for `Cc1c(-c2ccccc2)[nH]c(-c2ccc(O)c(O)c2)[n+]1O` was 4.27; that for `Oc1ccc(CCNC(c2ccccc2)c2ccccc2)cc1O` was 4.26.
`Oc1ccc(CCNc2c3c(nc4ccccc24)CCCC3)cc1O`: the pIC50 is 4.46.
Consider `Oc1ccc(CCNc2ccc3ccccc3c2)cc1O`, for which the negative-log IC50 (pIC50) is 4.46.
As to `Oc1ccc(CCNc2cncc3ccccc23)cc1O`, the pIC50 is 4.45.
Same read-out and setting: the value for `CN(CCc1ccc(O)c(O)c1)c1ccncc1` was 4.35.
On the same count and under the same terms, the value for `Cc1ccc(-c2nc(-c3ccc(O)c(O)c3)cs2)cc1` was 4.43; that for `O=S1(=O)c2ccccc2-c2cc(-c3nc(-c4ccc(O)c(O)c4)[nH]c3-c3ccccc3)ccc21` was 4.40.
Take `Oc1ccc(-c2csc(Cc3cc4ccccc4[nH]3)n2)cc1O`: the pIC50 is 4.70.
The same measure, in the same setting: the value for `Oc1ccc(CCNc2cccc3ccccc23)cc1O` was 4.52; that for `Nc1cc(C(=O)c2ccccc2)ccc1O` was 4.39.
Turning to `CC(C)(C)C(=O)OCc1nc(-c2ccc(O)c(O)c2)cs1`, the negative logarithm of the IC50 (pIC50) was 4.38.

The same test, now with this note: recombinant PfM1AAP, H-Leu-NHMec fluorogenic cleavage; at 50 µM (top of the series).
Take `O=C(O)CCCNc1c2ccccc2nc2ccccc12`: the inhibition result is “inactive”.
On the same count and under the same terms, the entry for `O=C(O)CCCCNc1c2ccccc2nc2ccccc12` is “inactive”.

The same test, now with this note: recombinant PfM1AAP, H-Leu-NHMec fluorogenic cleavage; at 100 µM (top of the series).
On to `Cc1c(O)c(=O)ccn1CCNc1c2ccccc2nc2ccccc12`, for which the inhibition result was “inactive”.
For the compound `COc1ccc(CCC(=O)O)cc1OC`, the inhibition result was “inactive”.
Same read-out and setting: the value for `COc1ccc(CCN(C)c2c3ccccc3nc3ccccc23)cc1OC` was “inactive”; that for `COc1ccc(CCNc2ccnc3ccccc23)cc1OC` was “inactive”.
For `COc1cccc(-c2nc(-c3ccc(OC)c(OC)c3)cs2)c1`, the inhibition entry was “inactive”.
In the case of `O=c1cc(CO)oc(CN2CCCCC2)c1O`, the inhibition entry is “inactive”.
For `COc1ccc(CCNc2cccc3ccccc23)cc1OC`, the inhibition entry is “inactive”.
`COc1ccc(CCCNc2c3ccccc3nc3ccccc23)cc1OC`: the inhibition entry was “inactive”.
As to `COc1ccc(CCN(C)c2ccncc2)cc1OC`, the inhibition result was “inactive”.
As for `COc1ccc(CNc2c3ccccc3nc3ccccc23)cc1OC`, the inhibition entry is “inactive”.
For the compound `O=c1ccn(CCNc2c3ccccc3nc3ccccc23)cc1OCc1ccccc1`, the inhibition result is “inactive”.
In the case of `CCC(C)C(=O)Nc1ccccc1N` (stereo not drawn), the inhibition entry was “inactive”.
On to `COc1ccc(CCNc2c3c(nc4ccccc24)CCCC3)cc1OC`, for which the inhibition result was “inactive”.
On to `COc1ccc(CCN(C)CCc2ccccc2)cc1OC`, for which the inhibition result is “inactive”.
As to `COc1ccc(CCN2CCc3ccccc3C2)cc1OC`, the inhibition result is “inactive”.
For `COc1ccc(-c2nc(-c3ccccc3)c(-c3ccccc3)[nH]2)cc1OC`, the inhibition result was “inactive”.
`COc1ccc(CCN2CCN(C)CC2)cc1OC`: the inhibition result was “inactive”.
On to `NCCNc1c2ccccc2nc2ccccc12`, for which the inhibition entry was “inactive”.
As for `Oc1ccc(CNc2c3ccccc3nc3ccccc23)cc1O`, the inhibition result is “inactive”.
`Cc1c(OCc2ccccc2)c(=O)ccn1CCNc1c2ccccc2nc2ccccc12`: the inhibition entry is “inactive”.
As to `COc1ccc(CCNc2ccncc2)cc1OC`, the inhibition result was “inactive”.
On to `COc1ccc(CCNc2c3ccccc3nc3ccccc23)cc1`, for which the inhibition entry is “inactive”.
Take `COc1ccc(CCNc2c3ccccc3nc3ccccc23)cc1OC`: the inhibition result was “inactive”.
Turning to `O=C(c1ccco1)N1CCN(Cc2cc(=O)c(O)co2)CC1`, the inhibition entry is “inactive”.
With `O=C(c1ccco1)N1CCN(Cc2cc(=O)c(O)c[nH]2)CC1`, the inhibition result was “inactive”.
On the same count and under the same terms, the entry for `COc1ccc(-c2csc(-c3ccccc3OC)n2)cc1OC` is “inactive”.
On to `COc1ccc(CCNC2CCN(Cc3ccccc3)CC2)cc1OC`, for which the inhibition entry was “inactive”.
Take `CCC(C)C(=O)Nc1ccccc1O` (stereo not drawn): the inhibition result was “inactive”.
For `COc1ccc(-c2csc(-c3ccccc3)n2)cc1OC`, the inhibition entry was “inactive”.
Regarding `Oc1ccc(CCNc2c3ccccc3nc3ccccc23)cc1`, the inhibition result is “inactive”.
For `COc1ccc(CCNc2ccc3ccccc3c2)cc1OC`, the inhibition entry is “inactive”.
As to `COc1cccc(CCNc2c3ccccc3nc3ccccc23)c1`, the inhibition result is “inactive”.
`COc1ccc(CC(=O)O)cc1OC`: the inhibition result is “inactive”.
As to `COc1ccc(CCN(C)c2ccnc3ccccc23)cc1OC`, the inhibition entry is “inactive”.
In the case of `COc1ccc(CCNC2CCN(C)CC2)cc1OC`, the inhibition result was “inactive”.

What is called pIC50 is the IC50 on a negative log10 scale, so that one unit is a factor of ten.

The values are drawn from PubChem BioAssay AID588680 (Southern Research Specialized Biocontainment Screening …, 2011).
